The results in this text go back to patent US20110092476A1, “Bicycloheteroaryl compounds as P2X7 modulators and uses thereof” (Renovis, Inc., priority 2006, published 2011).

pIC50: −log10 of the molar value. Where two headings read alike, the source gives them in different places.

The target in this test is T1, P2X7 receptor (Homo sapiens, UniProt Q99572).
T1 construct: host or cells: THP-1 cells differentiated with LPS and IFN-γ
T1 sequence (Q99572 1-595): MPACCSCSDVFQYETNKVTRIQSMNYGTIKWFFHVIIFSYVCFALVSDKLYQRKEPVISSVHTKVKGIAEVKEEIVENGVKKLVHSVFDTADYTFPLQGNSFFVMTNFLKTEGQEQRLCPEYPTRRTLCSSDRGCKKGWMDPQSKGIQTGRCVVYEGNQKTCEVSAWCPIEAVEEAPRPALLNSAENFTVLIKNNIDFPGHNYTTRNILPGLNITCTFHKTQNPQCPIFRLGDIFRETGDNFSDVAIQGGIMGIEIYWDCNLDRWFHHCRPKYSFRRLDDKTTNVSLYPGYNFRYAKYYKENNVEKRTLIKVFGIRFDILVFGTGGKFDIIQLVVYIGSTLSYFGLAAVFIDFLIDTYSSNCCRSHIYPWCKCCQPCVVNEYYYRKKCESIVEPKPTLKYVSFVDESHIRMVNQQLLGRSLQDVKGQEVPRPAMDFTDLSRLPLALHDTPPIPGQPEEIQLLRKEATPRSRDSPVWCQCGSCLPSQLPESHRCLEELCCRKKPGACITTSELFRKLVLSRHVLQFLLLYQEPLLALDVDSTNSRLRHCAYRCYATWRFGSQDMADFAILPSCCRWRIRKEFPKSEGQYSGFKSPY
Description: IL-1β release assay in differentiated THP-1 cells stimulated with BzATP (Example 9). The class given is cell-based. To be noted: BzATP 250 uM; for inhibition at 0.1 µM / inhibition at 0.3 µM: differentiated THP-1 cells, read-out: IL-1β % Inhib. @ 0.3 or 0.1 uM; for pIC50: THP-1 cells, IL-1β by ELISA. The procedure:
THP-1 cells (ATCC Cat #285-IF-100) are plated in 96 well plates at a concentration of 200,000 cells per well and allowed to differentiate in RPMI-1640 media (ATCC Cat #30-2001) containing 10% FBS, 100 IU/mL penicillin, 100 ug/mL streptomycin, 100 ng/mL LPS and 100 ng/mL IFN-γ for 16 hours. Following differentiation, the cells are treated for an additional 2 hours in RPMI-1640 media containing 100 IU/mL penicillin, 100 ug/mL streptomycin and fresh LPS at 100 ng/mL. The cells are then pretreated for 30 minutes with the compound of interest at the appropriate concentration in RPMI media containing 100 IU/mL penicillin, 100 ug/mL streptomycin. Following the pretreatment 2′,3′-O-(4-benzoylbenzoyl)-adenosine 5′-triphosphate (Sigma Aldrich Cat #B6396) is added to a final concentration of 250 uM and the cells are incubated for an additional 45 minutes. 30 uL of cell supernatant is then collected and IL-1β levels determined via ELISA (R&D systems Cat. #HSLB50) according to manufacturer's recommendations using the Tecan Safire plate reader. Background adjusted IL-1β levels of drug treated and non-treated cells are used to calculate the percent inhibition.
The compounds set forth in Table 1 were tested for activity in a cellular model as described herein. Specifically, cells were pretreated with differing amounts of the compound under test and released IL-1β determined as in Example 9, above. Measurements were made and IC50 values, presented in Table 2, below, were determined by fitting the data to a four parameter logistic equation using GraphPad Prism software (GraphPad Software, Inc). The equation may be expressed by the following formula:
Y=Bottom+(Top−Bottom)/(1+10̂((Log EC50−X)*HillSlope))
Where X is the logarithm of concentration, Y is the response and Y starts at Bottom and goes to Top with a sigmoid shape.
On the technique in general: An ELISA detects its analyte on a solid surface through an enzyme-linked reagent.

Turning to `Cc1ccc(C(=O)Nc2cccc3c(=O)n(CC(C)(C)O)ccc23)cc1Cl` [Compound 220], the inhibition at 0.1 µM (0.1 μM compound, "*" symbols) lay in the range of 26 to 50%.

`CC(C)[C@H](C(=O)O)n1ccc2c(NC(=O)[C@@H](C)c3ccc(Cl)cc3)cccc2c1=O` [Compound 323, (R)-2-{5-[(S)-2-(4-Chloro-phenyl)-propionylamino]-1-oxo-1H-isoquinolin-2-yl}-3-methyl-butyric acid]: where the note is “0.3 μM compound, "+" symbols”, the inhibition at 0.3 µM is 51 to 75%.

For the molecule `COc1ccc(C(=O)Nc2cccc3c(=O)n(CC(C)(C)O)ccc23)cc1Cl` [Compound 192], the inhibition at 0.1 µM (0.1 μM compound (symbols *)) lay within 0 to 25%. In the case of `CNC(=O)[C@@H](C(C)C)n1ccc2c(NC(=O)[C@H](C)c3ccc(Cl)cc3)cccc2c1=O` [Compound 277], the inhibition at 0.3 µM (0.3 μM compound, "+" symbols) was above 76%. Still for that read-out and setting: the result for `C[C@@H](C(N)=O)n1ccc2c(NC(=O)Cc3ccc(Cl)nc3)cccc2c1=O` [Compound 310] reads 0 to 25%; that for `C[C@H](C(N)=O)n1ccc2c(NC(=O)Cc3ccc(Cl)nc3)cccc2c1=O` [Compound 312], 0 to 25%. As for `COc1ccc(C(=O)Nc2cccc3c(=O)n(C(C)CO)ccc23)cc1C` (stereo not shown) [Compound 123], the inhibition at 0.1 µM (0.1 μM compound (symbols *)) fell in the range of 0 to 25%.

Turning to `CC(C)[C@H](CO)n1ccc2c(NC(=O)[C@@H](C)c3ccc(Cl)cc3)cccc2c1=O` [Compound 274], the pIC50 (commonly the IC50 on a negative log10 scale, so that one unit is a factor of ten) is 7.84. Further, the inhibition at 0.3 µM (0.3 μM compound, "+" symbols) is above 76%.

Regarding `O=C(Cc1ccc(Cl)c(C(F)(F)F)c1)Nc1cccc2c(=O)n(C[C@H]3CCCN3)ccc12` [Compound 243], the inhibition at 0.3 µM (0.3 μM compound, "+" symbols) was above 76%. In the case of `CC(C)(O)Cn1ccc2c(NC(=O)CCc3ccc4c(c3)OCO4)cccc2c1=O` [Compound 195], the inhibition at 0.1 µM (0.1 μM compound (symbols *)) fell in the range of 0 to 25%.

For the molecule `Cc1ccc(C)c(CC(=O)Nc2cccc3c(=O)n(CC(C)(C)O)ccc23)c1` [Compound 191], the inhibition at 0.1 µM (0.1 μM compound (symbols *)) lay in the range of 0 to 25%. In the case of `Cc1ccc(C(=O)Nc2cccc3c(=O)n(C(C)CO)ccc23)cc1Cl` (stereo not shown) [Compound 115], the inhibition at 0.1 µM (0.1 μM compound (symbols *)) lay in the range of 0 to 25%. For the molecule `C[C@H](C(N)=O)n1ccc2c(NC(=O)C(C)(C)c3ccc(Cl)cc3)cccc2c1=O` [Compound 264], the pIC50 was 6.35. The inhibition at 0.3 µM (0.3 μM compound, "+" symbols) fell in the range of 26 to 50%. As to `CC(O)Cn1ccc2c(NC(=O)c3cc4cc(Cl)ccc4o3)cccc2c1=O` (stereo not shown) [Compound 181], for the setting “0.1 μM compound (symbols *)”, the inhibition at 0.1 µM is 0 to 25%.

As to `Cc1cc(C(=O)Nc2cccc3c(=O)n(CC(C)(C)O)ccc23)ccc1Cl` [Compound 196], for the setting “0.1 μM compound (symbols *)”, the inhibition at 0.1 µM was 0 to 25%. `COc1ccc(CC(=O)Nc2cccc3c(=O)n(C(C)CO)ccc23)cc1` (stereo not shown) [Compound 110]: the inhibition at 0.1 µM (0.1 μM compound (symbols *)) lay within 0 to 25%. Consider `CC(O)Cn1ccc2c(NC(=O)Cc3ccc4c(c3)OCO4)cccc2c1=O` (stereo not shown) [Compound 165], for which the inhibition at 0.1 µM (0.1 μM compound (symbols *)) fell in the range of 0 to 25%. With `Cc1ccc(Cl)c(C(=O)Nc2cccc3c(=O)n(CC4(O)CCCCC4)ccc23)c1` [Compound 51], where the note is “0.3 μM compound (symbols +)”, the inhibition at 0.3 µM was 0 to 25%. Still for that read-out and setting: the result for `COc1ccc(OC)c(CC(=O)Nc2cccc3c(=O)n(CCO)ccc23)c1` [Compound 77] reads 0 to 25%; that for `O=C(CCc1ccc(Cl)cc1)Nc1cccc2c(=O)n(CC3(O)CCCCC3)ccc12` [Compound 49], 0 to 25%.

In the case of `C[C@@H](CO)n1ccc2c(NC(=O)Cc3cccc(C(F)(F)F)c3F)cccc2c1=O` [Compound 325], the inhibition at 0.3 µM (0.3 μM compound, "+" symbols) is above 76%. Consider `Cc1ccc(CC(=O)Nc2cccc3c(=O)n([C@H](C)C(N)=O)ccc23)cc1F` [Compound 302], for which the inhibition at 0.3 µM (0.3 μM compound, "+" symbols) is above 76%. Still for that read-out and setting: the result for `CC(C(=O)Nc1cccc2c(=O)n(C(CO)CO)ccc12)c1ccc(Cl)cc1` (stereo not shown) [Compound 231] reads 26 to 50%.

Consider `CC(C)(CO)n1ccc2c(NC(=O)Cc3ccc(C(F)(F)F)cc3)cccc2c1=O` [Compound 363], for which the inhibition at 0.3 µM (0.3 μM compound, "+" symbols) was in the range of 51 to 75%.

As for `CC(=O)NCCn1ccc2c(NC(=O)Cc3ccc(Cl)c(C(F)(F)F)c3)cccc2c1=O` [Compound 391], the pIC50 is 9.41. Further, the inhibition at 0.3 µM (0.3 μM compound, "+" symbols) is above 76%. As for `C[C@@H](C(N)=O)n1ccc2c(NC(=O)Cc3ccc(F)c(C(F)(F)F)c3)cccc2c1=O` [Compound 348], for the setting “0.3 μM compound, "+" symbols”, the inhibition at 0.3 µM was above 76%. Same read-out and setting: the result for `CC(C)(CO)n1ccc2c(NC(=O)Cc3ccc(Cl)cc3F)cccc2c1=O` [Compound 374] reads above 76%.

`Cc1cccc(CC(=O)Nc2cccc3c(=O)n(CC4(O)CCCCC4)ccc23)c1` [Compound 32]: the inhibition at 0.3 µM (0.3 μM compound (symbols +)) lay in the range of 0 to 25%.

Take `COc1cc(CC(=O)Nc2cccc3c(=O)n(CC4(O)CCCCC4)ccc23)cc(OC)c1` [Compound 39]: the inhibition at 0.3 µM (0.3 μM compound (symbols +)) lay within 0 to 25%. `CC(CO)n1ccc2c(NC(=O)CCCc3ccccc3)cccc2c1=O` (stereo not shown) [Compound 111]: the inhibition at 0.1 µM (0.1 μM compound (symbols *)) is 0 to 25%.

On to `CC(C)(O)Cn1ccc2c(NC(=O)c3ccc(-c4ccccc4)o3)cccc2c1=O` [Compound 188], for which the inhibition at 0.1 µM (0.1 μM compound (symbols *)) is 0 to 25%. Regarding `CC(C)[C@H](C(=O)NC1CC1)n1ccc2c(NC(=O)[C@@H](C)c3ccc(Cl)cc3)cccc2c1=O` [Compound 281, (R)-2-{5-[(S)-2-(4-Chloro-phenyl)-propionylamino]-1-oxo-1H-isoquinolin-2-yl}-N-cyclopropyl-3-methyl-butyramide], under “0.3 μM compound, "+" symbols”, the inhibition at 0.3 µM is above 76%. On to `C[C@H](C(N)=O)n1ccc2c(NC(=O)Cc3c(F)cccc3F)cccc2c1=O` [Compound 292], for which the inhibition at 0.3 µM (0.3 μM compound, "+" symbols) was in the range of 0 to 25%. For `C[C@H](C(N)=O)n1ccc2c(NC(=O)Cc3c(F)cccc3C(F)(F)F)cccc2c1=O` [Compound 286], where the note is “0.3 μM compound, "+" symbols”, the inhibition at 0.3 µM lay in the range of 26 to 50%. Turning to `O=C(Nc1cccc2c(=O)n(CCO)ccc12)c1ccc(C(F)(F)F)cc1C(F)(F)F` [Compound 6], under “0.3 μM compound (symbols +)”, the inhibition at 0.3 µM was in the range of 26 to 50%.

On to `Cc1cc(C)cc(CC(=O)Nc2cccc3c(=O)n(CC(C)O)ccc23)c1` (stereo not shown) [Compound 173], for which the inhibition at 0.1 µM (0.1 μM compound (symbols *)) was in the range of 26 to 50%. Turning to `Cc1cccc(C(=O)Nc2cccc3c(=O)n(CC4(O)CCCCC4)ccc23)c1` [Compound 20], the inhibition at 0.1 µM (0.1 μM compound (symbols *)) was in the range of 0 to 25%. For the molecule `O=C(Cc1ccc(Cl)cc1C(F)(F)F)Nc1cccc2c(=O)n(CCO)ccc12` [Compound 229], under “0.3 μM compound, "+" symbols”, the inhibition at 0.3 µM fell in the range of 51 to 75%.

Consider `CCOc1ccc(C(=O)Nc2cccc3c(=O)n(C(C)CO)ccc23)cc1` (stereo not shown) [Compound 101], for which, for the setting “0.1 μM compound (symbols *)”, the inhibition at 0.1 µM fell in the range of 0 to 25%. In the case of `CCOc1ccc(C(=O)Nc2cccc3c(=O)n(CC(C)O)ccc23)cc1` (stereo not shown) [Compound 145], under “0.1 μM compound (symbols *)”, the inhibition at 0.1 µM fell in the range of 0 to 25%. Same read-out and setting: the result for `COc1ccc(C(=O)Nc2cccc3c(=O)n(CC(C)O)ccc23)cc1C` (stereo not shown) [Compound 183] reads 26 to 50%; that for `Cc1cccc(C(=O)Nc2cccc3c(=O)n(CC(C)O)ccc23)c1C` (stereo not shown) [Compound 140], 0 to 25%. On to `COc1ccc2c(=O)n([C@H](C)CO)ccc2c1NC(=O)Cc1ccc(C(F)(F)F)c(F)c1` [Compound 358], for which the inhibition at 0.3 µM (0.3 μM compound, "+" symbols) was 0 to 25%. Turning to `CC(C)(CO)n1ccc2c(NC(=O)Cc3ccc(F)c(C(F)(F)F)c3)cccc2c1=O` [Compound 367], the inhibition at 0.3 µM (0.3 μM compound, "+" symbols) is above 76%. For `CC(O)Cn1ccc2c(NC(=O)c3ccc4ccccc4c3)cccc2c1=O` (stereo not shown) [Compound 152], for the setting “0.1 μM compound (symbols *)”, the inhibition at 0.1 µM fell in the range of 0 to 25%. Regarding `COc1ccc(CC(=O)Nc2cccc3c(=O)n(CC(C)O)ccc23)c(OC)c1` (stereo not shown) [Compound 174], the inhibition at 0.1 µM (0.1 μM compound (symbols *)) is 0 to 25%. Regarding `CC(C)(O)Cn1ccc2c(NC(=O)c3cccc4c3OCCO4)cccc2c1=O` [Compound 222], where the note is “0.1 μM compound, "*" symbols”, the inhibition at 0.1 µM fell in the range of 0 to 25%. Take `CC(CO)n1ccc2c(NC(=O)c3cccc4c3OCCO4)cccc2c1=O` (stereo not shown) [Compound 116]: the inhibition at 0.1 µM (0.1 μM compound (symbols *)) lay in the range of 0 to 25%. In the case of `O=C(Cc1ccccc1Cl)Nc1cccc2c(=O)n(CC3(O)CCCCC3)ccc12` [Compound 88], for the setting “0.1 μM compound (symbols *)”, the inhibition at 0.1 µM fell in the range of 0 to 25%.
